The record followed here is PMC7254991, “Design and validation of fibroblast activation protein alpha targeted imaging and therapeutic agents” (Theranostics, 2020).

The target in the test is T1, fibroblast activation protein alpha (FAP) (Homo sapiens, UniProt Q12884).
T1 construct: human FAP expressed on HEK293 cells (HEK293-hFAP)
T1 sequence (Q12884 1-760): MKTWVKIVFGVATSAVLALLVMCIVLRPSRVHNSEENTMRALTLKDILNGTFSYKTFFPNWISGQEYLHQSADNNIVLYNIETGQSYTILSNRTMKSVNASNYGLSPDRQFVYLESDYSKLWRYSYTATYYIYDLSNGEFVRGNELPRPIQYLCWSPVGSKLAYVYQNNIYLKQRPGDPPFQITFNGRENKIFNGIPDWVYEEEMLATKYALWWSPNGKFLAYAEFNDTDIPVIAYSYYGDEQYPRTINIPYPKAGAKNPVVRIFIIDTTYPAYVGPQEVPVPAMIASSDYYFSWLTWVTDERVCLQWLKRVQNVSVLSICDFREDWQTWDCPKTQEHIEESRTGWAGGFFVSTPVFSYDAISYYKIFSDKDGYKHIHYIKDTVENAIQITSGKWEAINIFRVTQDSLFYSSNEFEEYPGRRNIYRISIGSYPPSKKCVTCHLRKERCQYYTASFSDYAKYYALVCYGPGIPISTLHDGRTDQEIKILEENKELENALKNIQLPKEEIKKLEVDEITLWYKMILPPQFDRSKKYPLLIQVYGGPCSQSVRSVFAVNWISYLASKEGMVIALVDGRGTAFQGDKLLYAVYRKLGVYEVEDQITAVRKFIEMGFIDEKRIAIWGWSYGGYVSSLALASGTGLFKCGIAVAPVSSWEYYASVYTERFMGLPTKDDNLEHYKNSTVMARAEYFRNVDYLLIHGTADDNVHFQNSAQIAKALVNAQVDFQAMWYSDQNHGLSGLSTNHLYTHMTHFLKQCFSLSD
Put plainly: competition (excess unlabeled FL) against FL-L1-FITC, FL-L1-S0456 and […]mTc-FL-L3 binding on HEK293-hFAP cells. It is filed as cell-based.

On to `C[C@H](NC(=O)c1ccnc(CN)c1)C(=O)N1CC(F)(F)C[C@H]1C#N` [compound 8, FL], for which the “competition (excess unlabeled FL) against FL-L1-FITC, FL-L1-S0456 and 99mTc-FL-L” value was “Blocking of FL-L1-FITC related fluorescence by unlabeled FAP ligand (FL), indicated FAP mediated uptake of FL-L1-FITC in HEK293-hFAP cells”.
